In series [1] the test system is inositol phosphate signaling pathway. In words: In vivo measurement of tissue inositol phosphate signaling pathway activation (hippocampus, salivary gland). Conditions: rat, Compound 3 1 mg/kg. As for the experimental part:
Experimental compounds or drug substances were administered using standard techniques to Long Evans Hooded rats weighing 225 to 350 grams, and which had been pretreated with a subcutaneous injection of lithium chloride at a suitable dose between 3 and 10 mmoles per kg. At suitable times the animals were briefly anesthetized using 5% isoflurane and euthanized by decapitation. The brains and submaxillary salivary glands were rapidly dissected out, and the hippocampuses were dissected from the brains. The dissected tissues were homogenized in a suitable volume of ice-cold phosphate-buffered saline containing 10 mM lithium chloride, pH7.4, using a tissue homogenizer, and used immediately or frozen in aliquots at −80 degC for future use. The concentration of inositol-1-phosphate was determined in the homogenates using the IPOne TR-FRET assay (CisBio cat no 621PAPEB), following the manufacturer's instruction

The subject of the next series is rats. Put plainly: Salivation after transdermal iontophoretic co-delivery of agonist and antagonist from one patch. Type of series: in vivo, rat. Particulars: anesthetized rats, device with 1 mg Compound 3 plus 0.01 mg antagonist. As for the experimental part: Experimental compounds and drug substances were delivered transdermally in rats using iontophoresis as follows. The fur was shaved from the backs of Long Evans Hooded rats weighing 225 to 325 grams, using electric clippers. Experimental compounds and drug substances were formulated at suitable concentrations an aqueous mixture of the following composition:
The polyvinyl alcohol/water was heated to 95 degC until it became clear, then the other constituents were added and mixed well. The mixture was introduced into suitable molds containing a disc-shaped cavity 2.2 cm diameter and 2.2 mm deep. Molds may be fabricated using two glass sheets separated by a silicone rubber sheet with suitable sized cavities and filling ports cut-outs. The molds were subject to 3 freeze-thaw cycles at −80 degC and 20 degC until a firm cryogel was obtained. The gels were separated from the molds and trimmed into a circular shape. The gel was placed in a silicone rubber casing with one face in contact with a circular silver foil anodic electrode (22 mm dia/250 microns thick), and the assembly was placed on the shaved skin of the rat such that the other face was in contact with the skin on one side of the back of the rat. The rubber casing formed a seal over and around the gel/electrode assembly. […] This was placed on the other side of the shaved back of the rat, the edges of the gel discs being about 20 mm apart at their nearest point. A DC voltage was applied across the two patches from a constant-current DC power supply and the voltage adjusted to obtain the desired current, such that the skin of the animal completed the electrical circuit.
The devices were placed on shaved backs of anesthetized rats and salivation was measured.
The animals were placed slightly head-down on an inclined, heated ramp. Rectal temperature was monitored using a thermocouple and the temperature of the heating pad was adjusted manually to maintain normal body temperature. Saliva was collected from the mouth by absorption onto pre-weighed slips of filter paper. The filter paper was changed periodically and the amount of saliva was measured by weighing the filter paper slips.

The nature of series [2]: Immediate release capsules in healthy male volunteers: serum pharmacokinetics, metabolites, cholinergic side effects. Type of series: in vivo, human. As for the experimental part: A single 5 mg capsule or 5×0.2 mg capsules (1 mg total dose) were administered orally to healthy male volunteer human subjects with 125 ml of water. Six such subjects receiving the 5 mg dose, and a different 6 subjects received the 1 mg dose.
Subjects were monitored, among other things, for typical signs of muscarinic cholinergic action, such as increased salivation, lachrimation and diaphoresis. Venous blood samples were drawn at various intervals after dosing from each subject into standard tubes for bioanalytical and pharmacokinetic analysis. The blood was allowed to clot, and the serum separated, using common clinical laboratory techniques. Serum samples were stored at −20 deg C. until used for analysis.
MCD-386HCl, which exists in serum principally as the protonated form of MCD-386, was assayed in clinical serum samples as follows. 200 μL aliquots of serum samples were spiked with 50.0 μL of diluent for subject samples and QC samples and 50 μL of the appropriate intermediate standard solution for standards. Twenty five microliters (25.0 μL) of working internal standard stock solution and 40.0 μL of 10 N sodium hydroxide was then added and the samples were vortex mixed. Three milliliters (3.00 mL) of ethyl acetate was added followed by 5 minutes of vigorous vortexing and centrifugation. The top organic layer was transferred to a clean tube, evaporated to dryness, and the sample was reconstituted with 100 μL of diluent (0.1% formic acid). A 10 μL aliquot of this reconstituted sample was injected into Phenomenex Synergy 4μ POLAR-RP, 75×2.0 mm (P/N 00C-4336-B0) on a Waters Acuity HPLC LC system, and eluted using a gradient of from 12% to 90% acetonitrile containing 0.1% formic acid/0.1% formic acid in water. The eluant flow of the LC was injected by Turbo Ion Spray (positive ion) into a Sciex API 4000 (Applied Biosystems). The MS/MS transitions monitored were 181.1 m/z to 111.0 m/z for MCD-386HCl and 186.1 m/z to 111.1 m/z for the internal standard, D5-MCD-386HCl. The calibration curve was linear between 0.100 ng/mL and 50.0 ng/mL for MCD-386HCl. The lower limit of quantitation (LLOQ) was 0.100 ng MCD-386HCl per mL of serum. MCD-386HCl concentrations are expressed as free base.
The bioanalytical method for the extraction of metabolites from serum samples entailed adding 450 uL of a 90% acetonitrile+0.1% formic acid solution to 50 uL of the serum samples. The samples were vortexed and centrifuged at 16,000x g at 4° C. for 10 minutes. The supernatants were transferred to 3K molecular weight cut-off (MWCO) spin filters (Pall, Nanosep, #82031-346). Samples were filtered by centrifugation at 13,000×g at 4° C. for 20 minutes. The filtrates were transferred to a 96-well plate and sealed for LC/MS/MS analysis. The system used for this analysis was a Shimadzu Prominence HPLC system. […] The autosampler was maintained at 4° C. Injection volumes for all samples and standards were 40 uL. MRM methods for two possible metabolites were made. An API 3200 triple-quadrupole mass spectrometer with a Turbo V source (Applied Biosystems) was used, following commonly used procedures which would be readily set up by a person skilled in the art of LC-MS/MS. The counts of the characteristic parent and product ions of the free base metabolites were converted to concentration units by comparison with a standard calibration curve.
The bioanalytical results were analyzed using Win Nonlin software and common pharmacokinetic methods known to those skilled in the art.

A short description of series [3]: Blood and brain concentrations (rats) after oral gavage. Format: in vivo, rat. As for the experimental part:
Long-Evans Hooded rats (Charles River: male, 250-350 g) were dosed with solutions of test compounds in PBS by oral gavage. At the desired time after dosing, the animals were anesthetized with isoflurane, and then euthanized by cervical dislocation. Blood was obtained by cardiac puncture, transferred to a 1.5 mL microcentrifuge tube containing 15U Heparin, and the plasma recovered after centrifugation. Brains were dissected, weighed, immediately chilled to 4° C., and homogenized using a PowerGen 125 homogenizer in five volumes of ice-cold 2% formic acid. Proteins were precipitated from plasma and brain homogenate with two and five volumes respectively of ice-cold 2% formic acid and clarified by centrifugation. The supernatant was ultra-filtered by centrifugation through a 3K MWCO spin column (Pall Life Sciences), following the manufacturer's instructions. The concentration of compound in the ultra-filtrate was subjected to reverse-phase liquid chromatography using a 150×2.1 mm Agilent C8 reverse-phase column on a Shimadzu Prominence LC, eluting the compounds with a gradient of 2% to 50% of acetonitrile+0.1% formic acid for compound MI-50,382, or an isocratic flow of 2% acetonitrile+0.1% formic acid for the rest of the compounds listed. The concentration of the compound in the column effluent was measured using an Applied Biosystems API-3200 triple quadrupole mass spectrometer equipped with an electrospray sample injection system. The counts of the characteristic parent and product ions of each test compound were converted to concentration units by comparison with a standard calibration curve.

The target of a further series is T1, rat M1 receptors (Rattus norvegicus, UniProt P08482).
T1 construct: host or cells: Chinese Hamster Ovary cells (M1-CHO)
T1 sequence (P08482 1-460): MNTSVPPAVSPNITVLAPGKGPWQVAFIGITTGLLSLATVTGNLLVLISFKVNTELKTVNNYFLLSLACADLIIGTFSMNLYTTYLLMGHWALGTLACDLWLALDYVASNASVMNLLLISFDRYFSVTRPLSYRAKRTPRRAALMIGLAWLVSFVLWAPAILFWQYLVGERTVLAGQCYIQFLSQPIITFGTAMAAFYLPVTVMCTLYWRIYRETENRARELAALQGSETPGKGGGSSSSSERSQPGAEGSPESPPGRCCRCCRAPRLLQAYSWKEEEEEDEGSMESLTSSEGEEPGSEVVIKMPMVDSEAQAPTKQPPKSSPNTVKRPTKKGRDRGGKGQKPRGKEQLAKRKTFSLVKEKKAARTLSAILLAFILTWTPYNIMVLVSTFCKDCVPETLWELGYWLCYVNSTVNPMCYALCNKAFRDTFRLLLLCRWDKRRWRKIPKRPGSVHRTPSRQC
Put plainly: PI turnover (inositol phosphate production) in M1-CHO cells. Format: cell-based. Particulars: M1 versus M3 cell lines. The method, then:
The medium was changed to 70 μL/well of inositol-free DMEM containing 2 mM glutamine, 10% FBS and 10 μCi/ml of [3H]-inositol (PE:cat #NET114A250UC), incubated overnight as above, then 100 μL of a solution of the test compound in HBSS containing 10 mM LiCl and 20 mM HEPES, pH 7.4 was added, incubation was continued for 60 min under the above conditions, and the test was stopped by removing the test compound and replacing with 100 μL of 50 mM formic acid in water at 4° C.

The text below walks through data of US8853219B2, “Compounds and compositions for cognition-enhancement, methods of making, and methods of treating” (NeuroSolis, Inc., priority 2010, dated 2014).

For the compound `CC(C)[N+](C)(CCOC(=O)C1c2ccccc2Oc2ccccc21)C(C)C` [propantheline], in series [1] (antagonist 0.03 mg/kg), the “Block of increase in hippocampal inositol phosphate caused by Compound 3” value is reported as “without blocking” and the “Block of increase in salivary gland inositol phosphate caused by Compound 3” value is “can block”. Moreover, the “Reduction of salivation caused by transdermal iontophoretic delivery of Compound 3” value (“Reduction of salivation caused” below) in the series on rats is “greatly reduced”.

As to `CCc1noc(C2CN=CNC2)n1` (stereo not drawn) [MCD-386HCl, 5-(3-ethyl-1,2,4-oxadiazol-5-yl)-1,4,5,6-tetrahydropyrimidine], the “Observable cholinergic side effects” value in series [2] (1 mg total dose cohort) is “none of the subjects in the 1 mg total dose cohort experienced any observable cholinergic side effects”. In series [2] (5 mg cohort), the Diaphoresis result was “Two of these latter subjects experienced mild, transient diaphoresis that resolved within a short period, and two subjects experienced moderate diaphoresis”; the Hypersalivation result is “One of the latter subjects also experienced mild hypersalivation”; the “Observable cholinergic side effects” value was “two subjects experienced no observable side effects, and four subjects showed signs of muscarinic cholinergic activity”. Besides, the “Main metabolite in serum” value in series [2] (5 mg dose cohort) is listed as “identified in the serum samples of five out of six subjects”.

Take `Cl.[2H]C([2H])([2H])C([2H])([2H])c1noc(C2CN=CNC2)n1` (stereo not drawn) [compound 2, 3-(1,1,2,2,2-d5-ethyl)-5-(1,4,5,6-tetrahydropyrimidin-5-yl)-1,2,4-oxadiazole hydrochloride]: in series [3] (rat brain, 10 mg/kg po, 1 hr, relative to MCD-386), the “Brain Cmax (10 mg/kg po) 1 hr MCD-386 = 1.00” value is reported as 0.61. Besides, the “Penetration into the brain” value in series [3] (rats after oral dosing) is given as “penetrated into the brain”. The “Functional selectivity for M1 subtype by PI turnover” value at rat M1 receptors was “M1-subtype functionally selective muscarinic agonists”.

As to `CCN(CC)CC#CCOC(=O)C(O)(c1ccccc1)C1CCCCC1` (stereo not drawn) [oxybutinin], in series [1] (antagonist 0.1 mg/kg), the “Block of increase in salivary gland inositol phosphate caused by Compound 3” value was “less effective”. In the series on rats, the “Reduction of salivation caused” value was “reduced salivation, but were less effective”.

Regarding `C[N+]1(C)CCC(OC(=O)C(O)(c2ccccc2)C2CCCC2)C1` (stereo not drawn) [glycopyrrolate], in series [1] (antagonist 0.03 mg/kg), the “Block of increase in hippocampal inositol phosphate caused by Compound 3” value is recorded as “without blocking” and the “Block of increase in salivary gland inositol phosphate caused by Compound 3” value is on record as “can block”. In the series with rats, the “Reduction of salivation caused” value was “greatly reduced”.

Consider `NC(=O)C(c1ccccc1)(c1ccccc1)[C@@H]1CCN(CCc2ccc3c(c2)CCO3)C1` [darifenacin], for which the “Block of increase in salivary gland inositol phosphate caused by Compound 3” value in series [1] (antagonist 0.1 mg/kg) was “less effective”. Besides, the “Reduction of salivation caused” value in the series with rats was “reduced salivation, but were less effective”.
